Legend:
[1] = system: B16SIY murine melanoma tumors; test: B16SIY tumor growth after veliparib and IR; format: in vivo, mouse; conditions: veliparib 0.5 mg twice daily oral + 6 or 12 Gy IR vs IR alone; C57/B6 mice
Experimental: Mouse melanoma cell line B16SIY (5×10^5 cells) were implanted subcutaneously in the flank of 6 to 8-wk-old C57/B6 mice. Tumors were allowed to grow until they reached a volume of about 100 to 150 mm^3 (approximately 2 wk) before treatment with PARP inhibitor veliparib (vrib, (R)-2-(2-methylpyrrolidin-2-yl)-1H-benzo[d]imidazole-4-carboxamide, ABT-888) and/or IR (Dunn 2006). Mice received 0.5 mg of veliparib in water twice daily by oral gavage as indicated. CD8^+, CD4^+, NK cells were depleted by anti-CD8 or anti-CD4 or anti-NK1.1, respectively, 1 d before IR. Depletion was confirmed by checking peripheral blood samples by flow cytometry. Macrophages were depleted with liposomal clodronate starting 1 d before IR. Depletion was confirmed by checking splenocyte and tumor samples by flow cytometry (Zhang 2008). Samples were collected 2 to 7 days later, and analyzed by flow cytometry using a BD LSRII flow cytometer. Blood samples were gated in forward scatter and side scatter on smaller cells for CD8, CD4 analysis, larger cells for NK and macrophage, and the percentage of different cell types were determined (Lugade 2008, Zhang 2010).

[2] = system: bone marrow dendritic cells (CD11c); test: Coculture of DCs with senescent TRAMP-C2 cells, immunostimulation assay; conditions: CD45 positive cells
Experimental: Briefly 2×10^6 of collected BM cells were resuspended in 10 ml of complete medium (CM) (RPMI, 10% FBS, pen/strep, HEPES) +20 ng/ml mouse granulocyte-macrophage colony-stimulating factor (GM-CSF). BM were transferred to uncoated plastic Petri dish. On a third day 10 ml of fresh CM+20 ng/ml GM-CSF were added. Immature dendritic cells (DC) were harvested on day 5, were suspended at 5×10^6 cells/ml in ice-cold freezing medium (CM+10 ng/ml GM-CSF+10% DMSO) and frozen for future experiments.
Assayed cells (TRAMP-C2) were plated 2.5×10^5 p100 plates and next day irradiated (6Gy) and 25 μM veliparib to obtained senescent phenotype. For TRAMP-C2 the coculture was started 6 days after cell irradiation and veliparib treatment. DCs were thawed and plated in CM+10 ng/ml GM-CSF 24 hours before they were cocultured with senescent TRAMP-C2 cells. In a day when co-culture started DCs were detached with trypsin and washed twice with phosphate buffered saline (PBS) to remove GM-CSF. Senescent TRAMP-C2 cells culture was washed with PBS and medium also changed to remove veliparib. Washed DCs and senescent cells were cocultured in fresh medium for 2-3 days.
After coculture medium was collected to harvest non-adherent cells fraction. […]
As CD45 is marker of immune cells, only CD45 positive cells were analyzed and TRAMP-C2 cells could be excluded from analysis as CD45 negative.

[3] = system: breast, prostate, melanoma and head and neck squamous cell cancer cell lines; test: Radiation induced senescence in different human cancer cell lines; format: cell-based; conditions: combined with radiation
[4] = system: MCF7 Tet-On GFP-IBD human breast cancer cell line; test: GFP-53BP1 IRIF persistence, senescence and growth in MCF7 Tet-On GFP-IBD cells; format: cell-based
Experimental: To examine the effect of glucose metabolism on IRIF persistence in living cells, we exploited our previously described IRIF reporter consisting of GFP fused to the 53BP1 IRIF binding domain, expressed under tetracycline-inducible control. MCF7^Tet-On GFP-IBD cells were seeded at 3×10^5 per Fluorodish (World Precision Instruments, Inc.) in high-glucose (4.5 g/L) DMEM (Invitrogen) media supplemented with 10% Tet system-approved fetal bovine serum (Clontech) and 1 μg/mL doxycycline (Sigma). Next day media was exchanged for either high-glucose (4.5 g/L) or low-glucose (1 g/L) DMEM with 10% FBS and 1 μg/mL doxycycline. […] Cells were fixed at 3 h and 24 h for IRIF imaging and at day 5 for SA-βGal staining. Images were captured on Zeiss Axiovert 200M and a Hammatsu Orca ER FireWire digital monochrome (IRIF) or Zeiss Axiocam color digital camera (SA-βGal staining) controlled by OpenLab software.
To investigate what step of glycolysis is critical for improvement of DNA repair we used set of well established glycolysis inhibitors including glucose transporter Glut1 inhibitor, HXKi, GAPHi, PKi, LDHi. […] Given that elevated glycolysis predispose tumor cells for therapeutic resistance similar experiment has been performed on IR resistant PANC02 mouse pancreatic and U87 human glioma cell lines.

[5] = system: 22Rv1 (human) prostate carcinoma cells; test: Flow cytometric detection of SA-βGal with DDAO-G; format: cell-based
Experimental: Prostate carcinoma (PCa) cell lines included 22Rv1 (human) and TRAMP-C2 (murine, ATCC). PCa cell lines were propagated in complete culture medium using sterile culture flasks in a humidified, 5% CO2 incubator at 37° C. For 22Rv1 human PCa cells, complete media consisted of RPMI-1640 1× (modified without L-glutamine, Invitrogen) supplemented with fetal bovine serum (FBS, 10%, Gemini Biosciences), stabilized L-glutamine (2 mM, Gemini Biosciences), and penicillin-streptomycin solution (100 U/ml penicillin, 100 μg/ml streptomycin, Invitrogen). For TRAMP-C2 murine PCa cells, complete medium consisted of DMEM (modified with 4.5 g/l glucose and without L-glutamine, Invitrogen) supplemented with FBS (5%), Nu-Serum IV (5%, BD Biosciences), stabilized L-glutamine (4 mM), dehydroisoandrosterone (10 nM, Sigma-Aldrich), bovine insulin (5 μg/ml, Sigma-Aldrich), and penicillin-streptomycin solution (100 U/ml penicillin, 100 μg/ml streptomycin).
Cells were plated at low density (˜25×10^3 cells/cm^2) and incubated overnight to allow adherence to culture surfaces. The following day, PARP inhibitor veliparib (ABT-888, 10 μM in DMSO, ChemieTek) was added (or not) to freshly changed media to enhance uptake of the compound. Cells were incubated with veliparib for 60 minutes at 37° C. in 5% CO2 prior to gamma irradiation (IR, 6 Gy). Treated and untreated cells were then incubated undisturbed for 5 days to allow senescence to proceed.
Cells were pelleted by centrifugation for 5 minutes at 1000×g, supernatant removed, and pellet resuspended in 1% bovine serum albumin (BSA, United States Biological) in DPBS. Cell suspensions were counted (cells/mL) using a handheld counting device (Scepter, Millipore). […]
Analysis of SA-βGal signal was conducted by flow cytometry, using an LSRII cytometer (Becton Dickinson) equipped with a 633 nm red diode laser and a 670/30 (APC) bandpass filter suitable for DDAO red fluorescent signal excitation and emission detection. […] Single, whole cells were then visualized on a red-fluorescence vs SSC-A plot in order to define senescent SA-βGal^+ SSC^high cells. […]

[6] = veliparib+IR cells, FSC vs. SSC

## C[C@]1(c2nc3c(C(N)=O)cccc3[nH]2)CCCN1 [veliparib, (R)-2-(2-methylpyrrolidin-2-yl)-1H-benzo[d]imidazole-4-carboxamide]
[1]
  tumor regrowth: markedly delayed tumor regrowth
[2]; TRAMP-C2 treated with 0 Gy+25 μM veliparib
  population of CD11c positive cells: 5.2%
[2]; TRAMP-C2 treated with IR (6Gy)+25 μM veliparib
  population of CD11c positive cells: 36.7%
[3]
  radiation induced senescence: enhances radiation induced senescence
[4]; combined with cisplatin
  effect on cisplatin-induced foci persistence, senescence and growth suppression: enhances this effect
[4]; combined with irradiation
  accelerated senescence: induces accelerated senescence
  persistence of GFP-53BP1 foci (IRIF): enhance radiation induced persistence of GFP-53BP1 foci
[4]; irradiated cells, estrogen
  foci persistence and senescence in presence of estrogen: overcomes the activity of estrogen
[4]; veliparib+6 Gy vs veliparib or radiation alone
  growth: causes growth suppression
[5]; [6]
  B-Gal high cells within the region shown by the black rectangle: 41%
  B-Gal- or B-Gal low cells within the region shown by the black rectangle: 59%
[5]; veliparib+IR treated viable cells
  cells in senescent gate (B-Gal vs. SSC): 20%

Source: patent US20150024008A1, “Methods and Compositions Involving Induced Senescent Cells for Cancer Treatment” (THE UNIVERSITY OF CHICAGO, priority 2011, published 2015)
